Measured values taken from ChEMBL document CHEMBL1201862, “PubChem BioAssay data set” (2004).
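Protocol summary: plate cells (96-well), add compound at 5 concentrations, incubate 48 h, interpolate endpoints linearly. GI50 = concentration required for 50% inhibition of growth.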 Active and inactive are the calls of the source. No stated cut-off is given here; in the data, active = GI50 up to about 1.1 µM and inactive = higher.

Key:
Experiment in all cases: inhibition of tumour cell growth, NCI panel, 48 h
T47D = system: T47D
UO-31 = system: UO-31
786-0 = system: 786-0
NCI-H23 = system: NCI-H23
ACHN = system: ACHN
NCI-H522 = system: NCI-H522
SK-MEL-2 = system: SK-MEL-2
M14 = system: M14
SK-OV-3 = system: SK-OV-3
RPMI-8226 = system: RPMI-8226
SNB-19 = system: SNB-19
OVCAR-4 = system: OVCAR-4
IGROV-1 = system: IGROV-1
A549 = system: A549
PC-3 = system: PC-3
CCRF-CEM = system: CCRF-CEM
DU-145 = system: DU-145
HT-29 = system: HT-29
HCT-15 = system: HCT-15
U-251 = system: U-251
HOP-92 = system: HOP-92
TK-10 = system: TK-10
NCI-H226 = system: NCI-H226
SN12C = system: SN12C
MDA-N = system: MDA-N
MOLT-4 = system: MOLT-4
MCF7 = system: MCF7
OVCAR-5 = system: OVCAR-5
NCI/ADR-RES = system: NCI/ADR-RES
Hs-578T = system: Hs-578T
BT-549 = system: BT-549
HL-60 = system: HL-60
OVCAR-8 = system: OVCAR-8
HCC 2998 = system: HCC 2998
SK-MEL-28 = system: SK-MEL-28
LOX IMVI = system: LOX IMVI
SF-295 = system: SF-295
MDA-MB-435 = system: MDA-MB-435
A498 = system: A498
KM12 = system: KM12
SF-268 = system: SF-268
UACC-257 = system: UACC-257
SK-MEL-5 = system: SK-MEL-5
HCT-116 = system: HCT-116
COLO 205 = system: COLO 205
EKVX = system: EKVX
OVCAR-3 = system: OVCAR-3
Malme-3M = system: Malme-3M
NCI-H460 = system: NCI-H460
MDA-MB-231 = system: MDA-MB-231
SR = system: SR
HOP-62 = system: HOP-62
CAKI-1 = system: CAKI-1
UACC-62 = system: UACC-62
SF-539 = system: SF-539
SW-620 = system: SW-620
K562 = system: K562

## Nc1cc(CO)cc(Nc2c3ccccc3nc3occc23)c1
T47D
  GI50: 29.6 µM (inactive)
UO-31
  GI50: 32.2 µM (inactive)
786-0
  GI50: 29.9 µM (inactive)
NCI-H23
  GI50: 28.9 µM (inactive)
ACHN
  GI50: 29.8 µM (inactive)
NCI-H522
  GI50: 14.4 µM (inactive)
SK-MEL-2
  GI50: 23.6 µM (inactive)
M14
  GI50: 33.6 µM (inactive)
SK-OV-3
  GI50: 36.5 µM (inactive)
RPMI-8226
  GI50: 26.5 µM (inactive)
SNB-19
  GI50: > 100 µM (inactive)
OVCAR-4
  GI50: 17.1 µM (inactive)
IGROV-1
  GI50: 24.5 µM (inactive)
A549
  GI50: 40.4 µM (inactive)
PC-3
  GI50: 64 µM (inactive)
CCRF-CEM
  GI50: 48.1 µM (inactive)
DU-145
  GI50: 43.3 µM (inactive)
HT-29
  GI50: 6.76 µM (inactive)
HCT-15
  GI50: 25.6 µM
U-251
  GI50: 45.9 µM (inactive)
HOP-92
  GI50: 29.1 µM (inactive)
TK-10
  GI50: 52.6 µM (inactive)
NCI-H226
  GI50: 29.1 µM (inactive)
SN12C
  GI50: 39 µM (inactive)
MDA-N
  GI50: 25.9 µM (inactive)
MOLT-4
  GI50: 13.7 µM (inactive)
MCF7
  GI50: 20 µM (inactive)
OVCAR-5
  GI50: > 100 µM (inactive)
NCI/ADR-RES
  GI50: 22.4 µM (inactive)
Hs-578T
  GI50: 31 µM (inactive)
BT-549
  GI50: 19.4 µM (inactive)
HL-60
  GI50: 22.8 µM (inactive)
OVCAR-8
  GI50: 35.7 µM (inactive)
HCC 2998
  GI50: 31.3 µM (inactive)
SK-MEL-28
  GI50: 36.4 µM (inactive)
LOX IMVI
  GI50: 36.6 µM (inactive)
SF-295
  GI50: 37.7 µM (inactive)
MDA-MB-435
  GI50: 10.5 µM (inactive)
A498
  GI50: 51.4 µM (inactive)
KM12
  GI50: 33.8 µM (inactive)
SF-268
  GI50: 21.3 µM (inactive)
UACC-257
  GI50: 42.6 µM (inactive)
SK-MEL-5
  GI50: 23.1 µM (inactive)
HCT-116
  GI50: 24.8 µM (inactive)
COLO 205
  GI50: 28.6 µM (inactive)
EKVX
  GI50: 67.5 µM (inactive)
OVCAR-3
  GI50: 72.4 µM (inactive)
Malme-3M
  GI50: 92 µM (inactive)
NCI-H460
  GI50: 21.2 µM (inactive)
MDA-MB-231
  GI50: 31.8 µM (inactive)
SR
  GI50: 3.91 µM (inactive)
HOP-62
  GI50: 37.2 µM (inactive)
CAKI-1
  GI50: 28.6 µM (inactive)
UACC-62
  GI50: 20.8 µM (inactive)
SF-539
  GI50: 24.8 µM (inactive)

## CC(=O)Nc1ccc(NC(=O)CC(=O)Nc2ccc(NC(C)=O)cc2)cc1
T47D
  GI50: 32 µM (inactive)
UO-31
  GI50: > 100 µM (inactive)
786-0
  GI50: > 100 µM (inactive)
NCI-H23
  GI50: > 100 µM (inactive)
ACHN
  GI50: > 100 µM (inactive)
NCI-H522
  GI50: > 100 µM (inactive)
M14
  GI50: > 100 µM (inactive)
SK-OV-3
  GI50: 20.2 µM (inactive)
RPMI-8226
  GI50: > 100 µM (inactive)
SNB-19
  GI50: > 100 µM (inactive)
OVCAR-4
  GI50: > 100 µM (inactive)
IGROV-1
  GI50: > 100 µM (inactive)
A549
  GI50: > 100 µM (inactive)
PC-3
  GI50: > 100 µM (inactive)
CCRF-CEM
  GI50: > 100 µM (inactive)
DU-145
  GI50: > 100 µM (inactive)
HT-29
  GI50: > 100 µM (inactive)
HCT-15
  GI50: 25.8 µM
U-251
  GI50: 32.1 µM (inactive)
HOP-92
  GI50: > 100 µM (inactive)
TK-10
  GI50: > 100 µM (inactive)
NCI-H226
  GI50: > 100 µM (inactive)
SN12C
  GI50: > 100 µM (inactive)
MDA-N
  GI50: > 100 µM (inactive)
MOLT-4
  GI50: > 100 µM (inactive)
MCF7
  GI50: > 100 µM (inactive)
NCI/ADR-RES
  GI50: > 100 µM (inactive)
Hs-578T
  GI50: > 100 µM (inactive)
SW-620
  GI50: > 100 µM (inactive)
BT-549
  GI50: > 100 µM (inactive)
HL-60
  GI50: > 100 µM (inactive)
OVCAR-8
  GI50: > 100 µM (inactive)
HCC 2998
  GI50: 19.4 µM (inactive)
SK-MEL-28
  GI50: > 100 µM (inactive)
K562
  GI50: > 100 µM (inactive)
LOX IMVI
  GI50: > 100 µM (inactive)
SF-295
  GI50: > 100 µM (inactive)
MDA-MB-435
  GI50: > 100 µM (inactive)
A498
  GI50: > 100 µM (inactive)
KM12
  GI50: > 100 µM (inactive)
SF-268
  GI50: > 100 µM (inactive)
UACC-257
  GI50: > 100 µM (inactive)
SK-MEL-5
  GI50: > 100 µM (inactive)
HCT-116
  GI50: > 100 µM (inactive)
COLO 205
  GI50: > 100 µM (inactive)
EKVX
  GI50: > 100 µM (inactive)
OVCAR-3
  GI50: > 100 µM (inactive)
Malme-3M
  GI50: > 100 µM (inactive)
NCI-H460
  GI50: > 100 µM (inactive)
MDA-MB-231
  GI50: > 100 µM (inactive)
SR
  GI50: > 100 µM (inactive)
CAKI-1
  GI50: > 100 µM (inactive)
UACC-62
  GI50: 5.74 µM (inactive)
SF-539
  GI50: > 100 µM (inactive)
